Experimental data as given in US9103820B2 (priority 2004, dated 2015).
Positions of bridges follow the written chain, without caps; N, C: chain ends. Non-standard residues stand in square brackets, D forms with d. Chains are numbered I, II in the order given. No end group written: not given here. ξ: configuration not given here. ξK = NCCCCC(N)C(=O)O; Ahx = NCCCCCC(=O)O

Columns and labels:
[1] = molecular target: His-tagged Stx 2B-subunit (Escherichia phage 933W, UniProt P09386); experiment: biochemical; format: binding, Escherichia coli O157:H7
[2] = molecular target: STX; details: read-out: affinity (Kd) for STX; cited from earlier work

Sequence of His-tagged Stx 2B-subunit (P09386 20-89 limits assumed): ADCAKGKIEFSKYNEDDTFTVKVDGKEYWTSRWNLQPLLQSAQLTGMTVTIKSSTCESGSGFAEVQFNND

Q: Which Kd [1] does the source give for “I: MAKRRNPRRA[Ahx][ξK][ξK] / II: MAKRRNPRRA[Ahx][ξK] / III: MAKRRNPRRA[Ahx] / IV: MAKRRNPRRA[Ahx] (amide I:12-IV:C, I:13-II:C, II:12-III:C) [KRRNPRR]” here?
A: Its Kd is 2.1 µM.

Q: For “I: MAFRRNRRNA[Ahx][ξK][ξK] / II: MAFRRNRRNA[Ahx][ξK] / III: MAFRRNRRNA[Ahx] / IV: MAFRRNRRNA[Ahx] (amide I:12-IV:C, I:13-II:C, II:12-III:C) [FRRNRRN]”, which Kd [1] is on record?
A: Its Kd is 1.7 µM.

Q: For “Galα(1-4)-Galβ(1-4)-G1cβ1- [globo3 sugar]”, which Kd [2] is on record?
A: Its Kd is 1000 µM.

Q: Which Kd [1] does the source give for “I: MAPPPRRRRA[Ahx][ξK][ξK] / II: MAPPPRRRRA[Ahx][ξK] / III: MAPPPRRRRA[Ahx] / IV: MAPPPRRRRA[Ahx] (amide I:12-IV:C, I:13-II:C, II:12-III:C) [PPPRRRR]” here?
A: The Kd was 3.2 µM.

Q: With “I: MAPPRRNRRA[Ahx][ξK][ξK] / II: MAPPRRNRRA[Ahx][ξK] / III: MAPPRRNRRA[Ahx] / IV: MAPPRRNRRA[Ahx] (amide I:12-IV:C, I:13-II:C, II:12-III:C) [PPRRNRR]” as the substance, how does the Kd [1] read?
A: The Kd was 2.7 µM.
